Assay results: US6649628B1, “N-[2-hydroxy-3-(1-piperidinyl)propoxy]pyridine-1-oxide-3-carboximidoyl chloride and its use in the treatment of insulin resistance” (Biorex Kutato es Fejleszto RT, priority 1999, dated 2003)
Marks after values point to notes of the source that are not given here.

Columns and labels:
[1] = tested on: STZ-diabetic Wistar rats; test: Experiment 4: histological alterations of early diabetic retinopathy after 1 month of treatment; assay type: in vivo, rat
Experimental: Photographs and slide positives were prepared of representative samples.
The given value for negative cases was 0.1. A Box and Whisker plot graph was also prepared.

[2] = tested on: STZ-diabetic Wistar rats; test: Experiment 6: Compound-A and enantiomers, nerve conduction velocity after 1 month treatment
Experimental: In the experiments, male Wistar rats were used (Charles River Laboratories Inc.). At the start of the experiment, their weights were 340-370 g. Diabetes was induced by the intravenous administration of a single 45 mg/kg dose of streptozotocine (STZ, Sigma, St. Louis, Mo.) dissolved in physiological saline solution. The development of diabetes was checked after 1 day by a blood glucose test, accepting a value over 15 mmol/l.
The test and reference substances were administered p.os to the animals once a day.
For the determination of nerve conduction velocity (NCV), the method of Stanley, modified by De Konig and Gispen was used. The animals were anesthetized by the simultaneous administration of Hyponorm (1 mg/kg ip., Janssen, Tilburg, Denmark), fluanisone (10 mg/ml), and phentanyl citrate (0.2 mg/ml). Afterwards, the left ischiadicus and tibial nerves were stimulated at standard points. Supramaximal stimulus (square impulse, 0.03 ms) was used with a platinum needle electrode, through a Nihon-Kohden (model SEN-1104, Japan) stimulator. The electromyogram (EMG) transferred from the sole muscles and intensified by a myograph (Elema-Schonander, Stockholm, Sweden) was analyzed further by the Matlab for Windows (Mathwork Inc, UK) program. The extent of NCV damage caused by diabetes was expressed in m/s. The effectiveness of the treatment was compared to this in terms of percentage (%). The statistical calculations were done by unpaired t-test or single-criterion ANOVA test (along with the Newman-Keuls post hoc test).

[3] = tested on: STZ-diabetic Wistar rats
Description: The experiments were accomplished on Wistar rats with a body weight of 320-350 g. Diabetes was induced and checked as described in Experiment 2. In the test animals having been diabetic for 3 weeks the left nervus ischidiacus was injured by freezing and the right side one was used as non-injured control. The regeneration was observed by monitoring the signals of the flexor reflex provoked by irritation of the sole that is areas under curve (AUC) of the electromyogram transferred from the forward tibial muscle. For the stimulation and detection the system described in Experiment 2 was used. Single daily doses of 10 mg/kg of Compound-A and 5 mg/kg of A(+) enantiomer were administred for 5 weeks after the injury by freezing.

[4] = tested on: obese, insulin resistant, hyperinsulinaemic Zucker fa/fa rats; test: Experiment 1: carbohydrate metabolism (fasting glucose/insulin, ip glucose tolerance test) after 2-month treatment; assay type: in vivo, rat
Experimental: In the experiments so-called Zucker fa/fa rats (Charles River Laboratories Inc.) were used. In […] animals, obesity, insulin resistance, high blood insulin level, impaired glucose tolerance and hypertriglyceridaemia result from hypothalamic leptin receptor mutation. Due to the above characteristics, this is an accepted model of early type 2 diabetes.
The animals were placed in individual metabolic cages for 24 hours at the beginning of the study, and after 1 or 2 months of treatment for 24 hours of urine collection.
The animals were given either the test substances or physiological saline solution by gavage for control once a day between weeks 14-22.
Biochemical parameters of the blood and the urine were measured by a Kodak Ectachem 700 automatic analyzer. The total protein level of the urine was determined spectrophotometrically with the use of Bradford staining (Hitachi U-3200) at 595 nm. The insulin concentration of the serum was determined by the RIA method, using rat anti-insulin antibodies.
Systolic, diastolic blood pressure and heart rate were measured weekly on the tails of the rats (so-called tail cuff method) by a Letica 200 automatic analyzer. After two months of treatment, the level of glucose tolerance was determined by the intraperitoneal glucose tolerance test (2 g/kg ip.).

[5] = tested on: STZ-diabetic rats; details: 2 month
Experimental: After anesthesia (Calypsovet, 125 mg/kg. Ip., Richter Rt., Hungary), the eyes were enucleated and fixed in 4% formaldehyde dissolved in a phosphate buffer (pH:7.4).
Afterwards, they were embedded in paraffin (Medim DDM P800, embedding center: Lignifer L-120-92-014, stainer: Shandon Eliott, Microtome: is Leica SM 2000 R, Microscope: Jenaval Karl Zeiss Jena). Several 6 micron sections of the eyes were prepared, and hematoxilyn/eosine (Fluka) and PAS (periodic acid-Schiff, Fluka) staining were used. The light-microscopic evaluation was performed at a magnification of 40× and 100×. Photographs and slide positives were prepared of representative samples.
The histological evaluation was performed on coded samples, the group division was unknown for the examiner. Pathological deviations of the retina were graded on a scale of 0-20, while those of the lens on a scale of 0-3.
The statistical calculations were done with the Statistica 4.5 (SatSoft, USA) program. The given value for negative cases was 0.1. A Box and Whisker plot graph was also prepared.
For each group in the experiment, the mean±SE (Standard Error) values were calculated, and the comparison was done with the help of a non-parametric Mann-Whitney U-test (Graphpad Instat, San Diego, Calif.).

[6] = tested on: STZ-diabetic Wistar rats; test: Experiment 2: peripheral neuropathy, nerve conduction velocity after 1-month treatment; assay type: in vivo, rat; details: for MNCV / MNCV improvement / SNCV / SNCV improvement: 1 month
Description: (§1) (Graphpad Instat, San Diego, Calif.).

[7] = tested on: STZ-diabetic Wistar rats; test: Experiment 3: diabetic autonomous neuropathy after 1 month of treatment; assay type: in vivo, rat; details: daily 20 mg/kg single dose
Experimental: The experiments were performed under anesthesia achieved by administering 60 mg/kg ip. pentobarbital sodium (Nembutal, Sanofi, Phylaxia). After this, an intratracheal tube or polyethylene canula was inserted into the fermoral artery and vein. The arterial catheter was connected to a pressure transducer for the simultaneous measurement of systolic and diastolic blood pressure (online automatic measuring and forwarding system, with a Haemosys computer program). After 20 minutes of equillibration period, the following substances were administered intravenously: Noradrenalin, 5 μg/kg iv.—Isoproterenol 0.4 μg/kg iv.—N.vagus stimulation (2 V, duration: 500 μsec, delay: 1 msec). The effects of the substances were monitored for 10 minutes.

[8] = tested on: STZ-diabetic Wistar rats; test: Experiment 5: urinary protein loss caused by diabetic nephropathy after 1-month treatment; assay type: in vivo, rat
Experimental: For the 24-hour period of urine collection, the animals were placed in individual metabolic cages. During this period they were given water ad libitum but no food. The latter measure was necessary to prevent possible contamination by the protein content of the food. Urine was collected in calibrated glass containers, in which Thymol crystal (Reanal 3135-1-08-38) was placed to prevent bacterial contamination.
Before measurement, the urine samples were centrifuged (2500 rpm) and filtered through a paper filter (Whatmann 1). If necessary, they were stored at −20° C. until measurement.
The total protein content of the urine was determined by the Bradford staining method (Sigma B-6916, St. Louis, Mo.), and color intensity was detected by spectrophotometry (Hitachi-U-3200).

[9] = tested on: STZ diabetic Wistar rats; test: Preliminary test: N-oxide derivatives of bimoclomol on motor and sensor nerve conduction velocity deficit; assay type: in vivo, rat; details: 5 mg/kg
Experimental: In a preliminary test the effectiveness of the three N-oxide derivatives of bimoclomol on motor and sensor neuropathy in STZ diabetic Wistar rats were studied. The effectiveness of the three bimoclomol N-oxide derivatives in improving the peripheral motor and sensor nerve conduction velocity deficit caused by streptozotocine-induced diabetes was determined with use of the method described in detail in Experiment 2.
as §1

[10] = Compound-A 10 mg/kg, enantiomers 5 mg/kg daily
[11] = 20 mg/kg p.os daily, 2-month treatment
[12] = intraperitoneal glucose tolerance test
[13] = ip glucose tolerance test 2 g/kg, AUC 0-60 minutes, 20 mg/kg p.os daily, 2-month treatment

Structure (SMILES): O=C(O)/C=C\C(=O)O.[O-][n+]1cccc(C(Cl)=NOCC(O)CN2CCCCC2)c1 (stereo not shown) [Compound A, N-[2-hydroxy-3-(1-piperidinyl)-propoxy]-pyridine-1-oxide-3-carboximidoyl chloride (Z)-2-butenedioate (1:1)]
- Score values Improvement % ([1]; 5 mg/kg daily, 1 month): 74.5%
- Score values Mean ± SE (retinopathy histology) ([1]; 5 mg/kg daily, 1 month): 4.028 ± 0.961
- comparison of the two compounds versus diabetic, non-treated animals ([1]; Compound A 5 mg/kg vs bimoclomol 20 mg/kg): statistically more effective
- effect on diabetic retinopathy induced pathological histological alterations ([1]; Compound A 5 mg/kg, bimoclomol 20 mg/kg daily, 1 month): significantly improved
- MNCV ([2]; 10 mg/kg daily, 1 month): 59.3 ± 0.3 m/s
- MNCV improvement ([2]; 10 mg/kg daily, 1 month): 78.9%
- SNCV improvement ([2]; 10 mg/kg daily, 1 month): 79.2%
- effect on motor (MNCV) and sensory (SNCV) nerve conduction velocity deficits [2, 10]: significantly improved
- neuroregeneration of the non-freezed nerves ([3]; 10 mg/kg daily for 5 weeks): 44%
- extent of neuroregeneration of the nerve injured by freezing ([3]; 10 mg/kg daily for 5 weeks after injury, 5. week, untreated 63%): 73%
- effect on fasting blood glucose ([4]; 20 mg/kg p.os daily): significantly reduced
- effect on fasting insulin concentration ([4]; 20 mg/kg p.os daily): significantly reduced
- reduction of fasting insulin concentration ([4]; 20 mg/kg p.os daily): approx. 50%
- Fasting Blood Glucose (mean ± SE) [4, 11]: 8.267 ± 0.436 mmol/L
- Fasting Insulin (mean ± SE) [4, 11]: 11.176 ± 1.955 ng/mL
- effect on AUC of insulin [4, 12]: reduced it significantly, to the same level as the Lean control
- effect on area under the blood glucose curve (AUC) [4, 12]: neither bimoclomol, nor Compound A effected
- Blood Glucose (AUC) (mean ± SE) [4, 13]: 1418.40 ± 194.57
- Insulin (AUC) (mean ± SE) [4, 13]: 790.35 ± 166.08
- effect on peripheral insulin resistance ([4]; summary of Experiment 1): significantly reduces
- Scores lenticular + retinal improvement % ([5]; 10 mg/kg daily): 34.7%
- Scores lenticular + retinal mean ± SE ([5]; 10 mg/kg daily): 4.55 ± 0.69
- Scores retinal improvement % ([5]; 10 mg/kg daily): 65.8%
- Scores retinal mean ± SE ([5]; 10 mg/kg daily): 1.80 ± 0.75
- effect on lenticular and retinal pathologic histological alterations [5, 10]: not significant
- effect on retinal histological alterations only [5, 10]: effective
- MNCV ([6]; 5 mg/kg p.os once a day): 57.4 ± 0.3 m/s
- MNCV improvement ([6]; 5 mg/kg p.os once a day): 79.5%
- SNCV ([6]; 5 mg/kg p.os once a day): 58.4 ± 0.3 m/s
- SNCV improvement ([6]; 5 mg/kg p.os once a day): 77.6%
- MNCV ([6]; 10 mg/kg p.os once a day): 59.2 ± 0.3 m/s
- MNCV improvement ([6]; 10 mg/kg p.os once a day): 90.4%
- SNCV ([6]; 10 mg/kg p.os once a day): 60.4 ± 0.4 m/s
- SNCV improvement ([6]; 10 mg/kg p.os once a day): 89.0%
- MNCV ([6]; 20 mg/kg p.os once a day): 59.1 ± 0.3 m/s
- MNCV improvement ([6]; 20 mg/kg p.os once a day): 89.8%
- SNCV ([6]; 20 mg/kg p.os once a day): 60.1 ± 0.3 m/s
- SNCV improvement ([6]; 20 mg/kg p.os once a day): 87.4%
- effect on motor (MNCV) and sensor (SNCV) nerve conduction velocities ([6]; bimoclomol 20 mg/kg, Compound A 5 mg/kg once a day): significantly improved
- effect of an increase in the dose over 10 mg/kg on NCV improvement ([6]; dose over 10 mg/kg): did not increase the effect
- effect on pathological deviations resulting from autonomous neuropathy [7]: significantly reduced
- Heart left ventricular hypertrophy (deviation due to diabetes) ([7]; 1 month): ↑ (corrects)
- Increased negative chronotropic effect on vagus stimulation ([7]; 1 month): ↑ (corrects)
- Reduced hypotension on vagus stimulation ([7]; 1 month): ↑ (corrects)
- Reduced IS induced systemic arterial hypotension ([7]; 1 month, isoproterenol 0.4 μg/kg iv.): — (ineffective)
- 24-hour Urinary Protein Loss Mean ± SE ([8]; 10 mg/kg daily, 1 month, series 2): 12.06 ± 1.70 mg/24 h
- effect on STZ-diabetes-induced urinary protein loss ([8]; Bimoclomol 20 mg/kg, Compound-A 10 mg/kg, (+) enantiomer 5 mg/kg daily): non-significantly reduced

Structure (SMILES): [O-][n+]1cccc(C(Cl)=NOCC(O)C[N+]2([O-])CCCCC2)c1 (stereo not shown) [double N-oxide derivative of bimoclomol]
- Improvement of nerve conduction velocity (%) motor (MNCV) [9]: 25,9* %
- Improvement of nerve conduction velocity (%) sensor (SNCV) [9]: 29,1** %
